The record followed here is patent publication US20230064809A1, “SUBSTITUTED AMINOQUINOLONES AS DGKALPHA INHIBITORS FOR IMMUNE ACTIVATION” (Bayer Aktiengesellschaft, priority 2019, published 2023).

A word on the pIC50: it is the IC50 on a negative log10 scale, so that one unit is a factor of ten.

Each structure is given as a SMILES string. pIC50: −log10 of the molar value.

Sequence of DGKα (P23743 with tags, fused parts or gaps): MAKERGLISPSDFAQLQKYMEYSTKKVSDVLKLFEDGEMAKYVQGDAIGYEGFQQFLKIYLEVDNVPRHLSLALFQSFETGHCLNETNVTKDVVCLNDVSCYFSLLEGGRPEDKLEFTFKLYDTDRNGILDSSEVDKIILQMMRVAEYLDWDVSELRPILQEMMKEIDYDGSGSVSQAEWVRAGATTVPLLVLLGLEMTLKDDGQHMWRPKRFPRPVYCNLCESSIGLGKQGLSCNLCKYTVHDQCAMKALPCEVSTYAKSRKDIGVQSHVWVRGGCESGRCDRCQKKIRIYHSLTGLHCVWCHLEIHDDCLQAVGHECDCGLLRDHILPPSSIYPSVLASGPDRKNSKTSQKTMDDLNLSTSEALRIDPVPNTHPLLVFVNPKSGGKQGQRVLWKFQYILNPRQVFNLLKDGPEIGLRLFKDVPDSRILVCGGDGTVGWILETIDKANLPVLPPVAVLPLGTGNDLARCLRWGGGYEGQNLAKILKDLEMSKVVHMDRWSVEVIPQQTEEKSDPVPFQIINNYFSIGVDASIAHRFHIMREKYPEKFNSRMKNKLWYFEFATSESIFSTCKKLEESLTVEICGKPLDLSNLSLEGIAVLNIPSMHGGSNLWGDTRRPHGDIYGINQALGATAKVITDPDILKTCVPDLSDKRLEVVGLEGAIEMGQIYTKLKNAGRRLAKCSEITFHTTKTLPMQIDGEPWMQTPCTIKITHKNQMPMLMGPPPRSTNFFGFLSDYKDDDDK

For the test, the target named is DGKα (Homo sapiens, UniProt P23743). In words: Human DGKα kinase activity inhibition assay (ADP-Glo). Type of test: biochemical. The arrangement: made in house; host or cells: Sf9 insect cells, baculovirus. Conditions: in vitro, C-terminally FLAG-tagged recombinant full-length human DGKα, 1,2-dioleoyl-sn-glycerol substrate, ADP-Glo readout. Here is the method:
Human DGKα Kinase Activity Inhibition Assay. Human DGKα inhibitory activity of compounds of the present invention was quantified employing the human DGKα kinase activity assay as described in the following paragraphs. In essence, the enzyme activity was measured by quantification of the adenosine-di-phosphate (ADP) generated as a co-product of the enzyme reaction via the “ADP-Glo™ Kinase Assay” kit from the company Promega. This detection system works as follows: In a first step the ATP not consumed in the kinase reaction is quantitatively converted to […] (“ADP-Glo-reagent”), then the adenylate cyclase is stopped and the ADP generated in the kinase reaction converted to ATP, which subsequently generates in a luciferase-based reaction a glow-luminescence signal (“Kinase Detection Reagent”). C-terminally FLAG-tagged, recombinant full-length human DGKα (expressed in baculovirus infected insect cells, purified using anti-Flag pulldown and size exclusion chromatography as described below, DGKa_hu_1) was used as enzyme. As substrate for the kinase 1,2-dioleoyl-sn-glycerol, reconstituted in octyl-β-D-glucopyranoside micelles, was used. For the preparation of the micelles, 1 volume of a 16.1 mM solution of 1,2-dioleoyl-sn-glycerol (Avanti, Cat. #08001-25G) in chloroform was slowly evaporated using a nitrogen stream. Subsequently, 22.55 volumes of a 510 mM solution of octyl-β-D-glucopyranoside (Sigma-Aldrich, Cat. #08001-10G) in 50 mM MOPS buffer (pH 7.4) were added, and the mixture was sonicated in an ultrasonic bath for 20 s. Then 35 volumes of 50 mM MOPS buffer (pH 7.4) were added to yield a solution of 0.28 mM 1,2 dioleoyl-sn-glycerol and 200 mM octyl-β-D-glucopyranoside, which was aliquoted, flash-frozen in liquid nitrogen, and stored at −20° C. until use. For each experiment, a fresh aliquot was quickly thawed and diluted 24-fold with aqueous assay buffer (described below) containing 95.7 μM adenosine triphosphate (Promega) to yield a 1.67-fold concentrated substrate solution. For the assay 50 nl of a 100-fold concentrated solution of the test compound in dimethyl sulfoxide (DMSO, Sigma) was pipetted into either a white 1536-well or a white low-volume 384-well microtiter plate (both Greiner Bio-One, Frickenhausen, Germany). […] The concentration of DGK a was adjusted depending of the activity of the enzyme lot and was chosen appropriate to have the assay in the linear range, a typical concentration is about 0.1 nM. The reaction was stopped by the addition of 2.5 μl of “ADP-Glo-reagent” (1 to 1.5 diluted with water) and the resulting mixture was incubated at 22° C. for 1 h to convert the ATP no t consumed in the kinase reaction completely to […]. […] The amount of emitted light was taken as a measure for the amount of ADP generated and thereby for the activity of the DGKα.
(ADP-Glo first removes unused ATP, then detects ADP through luciferase.)
In the case of `Cn1c(=O)c(C#N)c(N2CCC3(CCN(c4ccccc4)C3)CC2)c2ccccc21` [Example 1, 1-methyl-2-oxo-4-(2-phenyl-2,8-diazaspiro[4.5]decan-8-yl)-1,2-dihydroquinoline-3-carbonitrile], the pIC50 is 7.47.

As for `Cn1c(=O)c(C#N)c(N2CCC3(CCN(c4ccc(F)cc4)C3)CC2)c2ccccc21` [Example 2, 4-[2-(4-fluorophenyl)-2,8-diazaspiro[4.5]decan-8-yl]-1-methyl-2-oxo-1,2-dihydroquinoline-3-carbonitrile], the pIC50 was 7.42. For the compound `Cn1c(=O)c(C#N)c(N2CCC3(CCN(c4ccc(F)c(F)c4)C3)CC2)c2ccccc21` [Example 3, 4-[2-(3,4-difluorophenyl)-2,8-diazaspiro[4.5]decan-8-yl]-1-methyl-2-oxo-1,2-dihydro-quinoline-3-carbonitrile], the pIC50 was 7.41. The result for `Cn1c(=O)c(C#N)c(N2CCC3(CN(c4ccc(F)cc4)C3)C2)c2ccccc21` [Example 4, 4-[2-(4-fluorophenyl)-2,6-diazaspiro[3.4]octan-6-yl]-1-methyl-2-oxo-1,2-dihydroquinoline-3-carbonitrile] reads 7.46; that for `COc1ccc(N2CC3(CCN(c4c(C#N)c(=O)n(C)c5ccccc45)C3)C2)cc1` [Example 5, 4-[2-(4-methoxyphenyl)-2,6-diazaspiro[3.4]octan-6-yl]-1-methyl-2-oxo-1,2-dihydro-quinoline-3-carbonitrile], 6.99. The result for `Cn1c(=O)c(C#N)c(N2CCC3(CN(c4ccc(Cl)cc4)C3)C2)c2ccccc21` [Example 6, 4-[2-(4-chlorophenyl)-2,6-diazaspiro[3.4]octan-6-yl]-1-methyl-2-oxo-1,2-dihydroquinoline-3-carbonitrile] reads 8.00.

For `Cn1c(=O)c(C#N)c(N2CC3(CCN(c4ccc(F)cc4)C3)C2)c2ccccc21` [Example 7, 4-[6-(4-fluorophenyl)-2,6-diazaspiro[3.4]octan-2-yl]-1-methyl-2-oxo-1,2-dihydroquinoline-3-carbonitrile], the pIC50 was 7.20. For `Cn1c(=O)c(C#N)c(N2CCC3(CCN(c4ccc(OC(F)(F)F)cc4)C3)CC2)c2ccccc21` [Example 8, 1-methyl-2-oxo-4-{2-[4-(trifluoromethoxy)phenyl]-2,8-diazaspiro[4.5]decan-8-yl}-1,2-dihydroquinoline-3-carbonitrile], the pIC50 is 7.77.

As to `COc1cccc(N2CCC3(CCN(c4c(C#N)c(=O)n(C)c5ccccc45)CC3)C2)c1` [Example 9, 4-[2-(3-methoxyphenyl)-2,8-diazaspiro[4.5]decan-8-yl]-1-methyl-2-oxo-1,2-dihydro-quinoline-3-carbonitrile], the pIC50 was 7.96. The result for `COc1ccccc1N1CCC2(CCN(c3c(C#N)c(=O)n(C)c4ccccc34)CC2)C1` [Example 10, 4-[2-(2-methoxyphenyl)-2,8-diazaspiro[4.5]decan-8-yl]-1-methyl-2-oxo-1,2-dihydro-quinoline-3-carbonitrile] reads 7.74; that for `CN(C)c1cccc(N2CCC3(CCN(c4c(C#N)c(=O)n(C)c5ccccc45)CC3)C2)c1` [Example 11, 4-{2-[3-(dimethylamino)phenyl]-2,8-diazaspiro[4.5]decan-8-yl}-1-methyl-2-oxo-1,2-dihydroquinoline-3-carbonitrile], 7.55.

Take `Cn1c(=O)c(C#N)c(N2CCC3(CCN(c4cccc(OC(F)(F)F)c4)C3)CC2)c2ccccc21` [Example 12, 1-methyl-2-oxo-4-{2-[3-(trifluoromethoxy)phenyl]-2,8-diazaspiro[4.5]decan-8-yl}-1,2-dihydroquinoline-3-carbonitrile]: the pIC50 is 7.30. The same measure for `CN(C)c1ccccc1N1CCC2(CCN(c3c(C#N)c(=O)n(C)c4ccccc34)CC2)C1` [Example 13, 4-{2-[2-(dimethylamino)phenyl]-2,8-diazaspiro[4.5]decan-8-yl}-1-methyl-2-oxo-1,2-dihydroquinoline-3-carbonitrile]: 7.29; for `Cn1c(=O)c(C#N)c(N2CCC3(CCN(c4ccccc4OC(F)(F)F)C3)CC2)c2ccccc21` [Example 14, 1-methyl-2-oxo-4-{2-[2-(trifluoromethoxy)phenyl]-2,8-diazaspiro[4.5]decan-8-yl}-1,2-dihydroquinoline-3-carbonitrile]: 7.21; for `COc1ccc(N2CCC3(CCN(c4c(C#N)c(=O)n(C)c5ccccc45)CC3)C2)cc1` [Example 15, 4-[2-(4-methoxyphenyl)-2,8-diazaspiro[4.5]decan-8-yl]-1-methyl-2-oxo-1,2-dihydro-quinoline-3-carbonitrile]: 7.04. With `Cn1c(=O)c(C#N)c(N2CC3(CCCN(c4ccc(F)cc4)C3)C2)c2ccccc21` [Example 16, 4-[6-(4-fluorophenyl)-2,6-diazaspiro[3.5]nonan-2-yl]-1-methyl-2-oxo-1,2-dihydro-quinoline-3-carbonitrile], the pIC50 is 7.82. Consider `Cn1c(=O)c(C#N)c(N2CCC3(CN(c4ccc(OC(F)(F)F)cc4)C3)C2)c2ccccc21` [Example 17, 1-methyl-2-oxo-4-{2-[4-(trifluoromethoxy)phenyl]-2,6-diazaspiro[3.4]octan-6-yl}-1,2-dihydroquinoline-3-carbonitrile], for which the pIC50 was 8.46. The same measure for `Cn1c(=O)c(C#N)c(N2CC3(CCN(c4ccc(OC(F)(F)F)cc4)C3)C2)c2ccccc21` [Example 18, 1-methyl-2-oxo-4-{6-[4-(trifluoromethoxy)phenyl]-2,6-diazaspiro[3.4]octan-2-yl}-1,2-dihydroquinoline-3-carbonitrile]: 7.72; for `Cn1c(=O)c(C#N)c(N2CCC3(CCN(c4ccc(OC(F)(F)F)cc4)C3)C2)c2ccccc21` (centres unmarked) [Example 19, 1-methyl-2-oxo-4-{7-[4-(trifluoromethoxy)phenyl]-2,7-diazaspiro[4.4]nonan-2-yl}-1,2-dihydroquinoline-3-carbonitrile]: 6.91; for `COc1cccc(N2CC3(CCN(c4c(C#N)c(=O)n(C)c5ccccc45)C3)C2)c1` [Example 20, 4-[2-(3-methoxyphenyl)-2,6-diazaspiro[3.4]octan-6-yl]-1-methyl-2-oxo-1,2-dihydroquinoline-3-carbonitrile]: 6.81.

As for `CN(C)c1ccc(N2CC3(CCN(c4c(C#N)c(=O)n(C)c5ccccc45)C3)C2)cc1` [Example 21, 4-{2-[4-(dimethylamino)phenyl]-2,6-diazaspiro[3.4]octan-6-yl}-1-methyl-2-oxo-1,2-dihydroquinoline-3-carbonitrile], the pIC50 is 6.79. The result for `Cn1c(=O)c(C#N)c(N2CCC3(CN(c4ccc(N5CCCC5=O)cc4)C3)C2)c2ccccc21` [Example 22, 1-methyl-2-oxo-4-{2-[4-(2-oxopyrrolidin-1-yl)phenyl]-2,6-diazaspiro[3.4]octan-6-yl}-1,2-dihydroquinoline-3-carbonitrile] reads 6.32; that for `Cn1c(=O)c(C#N)c(N2CCC3(CCN(c4ccc(F)cc4)C3)C2)c2ccccc21` (centres unmarked) [Example 23, 4-[7-(4-fluorophenyl)-2,7-diazaspiro[4.4]nonan-2-yl]-1-methyl-2-oxo-1,2-dihydro-quinoline-3-carbonitrile], 6.27. The result for `Cn1c(=O)c(C#N)c(N2CCC3(CN(c4ccc(N5CCOCC5)cc4)C3)C2)c2ccccc21` [Example 24, 1-methyl-4-{2-[4-(morpholin-4-yl)phenyl]-2,6-diazaspiro[3.4]octan-6-yl}-2-oxo-1,2-dihydroquinoline-3-carbonitrile] reads 5.77; that for `Cn1c(=O)c(C(N)=O)c(N2CCC3(CCN(c4ccc(OC(F)(F)F)cc4)C3)CC2)c2ccccc21` [Example 25, 1-methyl-2-oxo-4-{2-[4-(trifluoromethoxy)phenyl]-2,8-diazaspiro[4.5]decan-8-yl}-1,2-dihydroquinoline-3-carboxamide], 8.52; that for `Cn1c(=O)c(C(N)=O)c(N2CCC3(CN(c4ccc(Cl)cc4)C3)C2)c2ccccc21` [Example 26, 4-[2-(4-chlorophenyl)-2,6-diazaspiro[3.4]octan-6-yl]-1-methyl-2-oxo-1,2-dihydroquinoline-3-carboxamide], 7.38.
